Laboratory results: the NIST ThermoML archive (doi:10.1021/je025639s)

Assays:
[1] = Ring tensiometer
[2] = xn = mol fraction of the nth substance listed; settings: Ring tensiometer

CCO [ethanol]
[1]
Settings | surface tension liquid-gas [mN/m]
293.15 K | 22.3
298.15 K | 21.8
303.15 K | 21.4
308.15 K | 21.1
313.15 K | 20.8
318.15 K | 20.5
323.15 K | 20

OCCO [1,2-ethanediol]
[1]
Settings | surface tension liquid-gas [mN/m]
293.15 K | 48.9
298.15 K | 48.6
303.15 K | 48.1
308.15 K | 47.5
313.15 K | 47.1
318.15 K | 46.4
323.15 K | 45.9

OCCO [1,2-ethanediol] + CCO
surface tension liquid-gas [mN/m], [2]
Settings | 293.15 K | 298.15 K | 303.15 K | 308.15 K | 313.15 K | 318.15 K | 323.15 K
x2 = 0 | 48.9 | 48.6 | 48.1 | 47.5 | 47.1 | 46.4 | 45.9
x2 = 0.1 | 42 | 41.8 | 41.4 | 41.2 | 41 | 40.6 | 39.8
x2 = 0.3 | 32.9 | 32.7 | 32.2 | 31.6 | 31.1 | 30.8 | 30.7
x2 = 0.5 | 28.5 | 28.3 | 27.8 | 27.4 | 27 | 26.7 | 26.5
x2 = 0.6 | 26.9 | 26.4 | 26.1 | 25.8 | 25.4 | 25 | 24.8
x2 = 0.7 | 25 | 24.9 | 24.7 | 24.4 | 24 | 23.6 | 23.2
x2 = 0.9 | 23.1 | 22.68 | 22.33 | 22.05 | 21.8 | 21.55 | 21.1

CCO [ethanol] + OCCO
[2], x1 = 1
Settings | surface tension liquid-gas [mN/m]
293.15 K | 22.3
298.15 K | 21.8
303.15 K | 21.4
308.15 K | 21.1
313.15 K | 20.8
318.15 K | 20.5
323.15 K | 20
